Each block holds one compound with its values, some of them ahead of it. The source made the active and inactive calls. The rule behind the calls is not given here.
What was measured:
HeLa [1] = test: Induction of mitotic arrest in human HeLa cells assessed as increase in level of 4N DNA cells at 30 uM after 24 hrs by propidium iodide staining-based FACS analysis; type: functional, cell-based
RKO [2] = test: Growth inhibition of human RKO cells at 100 uM after 72 hrs by MTT assay relative to control; type: functional; details: read-out: GI
HeLa [3] = test: Induction of mitotic arrest in human HeLa cells assessed as increase in level of 4N DNA cells after 24 hrs by propidium iodide staining-based FACS analysis; type: functional, cell-based
U2OS [4] = test: Growth inhibition of human U2OS cells at 100 uM after 72 hrs by MTT assay relative to control; type: functional; details: read-out: GI
HeLa [5] = test: Growth inhibition of human HeLa cells at 100 uM after 72 hrs by MTT assay relative to control; type: functional; details: read-out: GI
RKO [6] = test: cells; details: Homo sapiens, 72 h
Description: Growth inhibition of human RKO cells after 72 hrs by MTT assay

[7] = target: Serine/threonine-protein kinase PLK2 (Homo sapiens, UniProt Q9NYY3); test: Binding affinity to GST-tagged PLK2 PBD (355 to 685 residues) (unknown origin) by NT-647 dye-based microscale thermophoresis analysis
U2OS [8] = test: Growth inhibition of human U2OS cells at 50 uM after 72 hrs by MTT assay relative to control; type: functional; details: read-out: GI
HeLa [9] = test: Growth inhibition of human HeLa cells at 50 uM after 72 hrs by MTT assay relative to control; type: functional; details: read-out: GI
HeLa [10] = test: Induction of mitotic arrest in human HeLa cells assessed as 4N DNA cells at 100 uM after 24 hrs by propidium iodide staining-based FACS analysis relative to control; type: functional
RKO [11] = test: Growth inhibition of human RKO cells at 50 uM after 72 hrs by MTT assay relative to control; type: functional; details: read-out: GI
HeLa [12] = test: Induction of mitotic arrest in human HeLa cells assessed as increase in level of 4N DNA cells at 10 uM after 24 hrs by propidium iodide staining-based FACS analysis; type: functional, cell-based
HeLa [13] = test: cells; details: Homo sapiens, 72 h
Description: Growth inhibition of human HeLa cells after 72 hrs by MTT assay

HeLa [14] = test: Induction of mitotic arrest in human HeLa cells assessed as increase in level of 4N DNA cells at 40 uM after 24 hrs by propidium iodide staining-based FACS analysis; type: functional, cell-based
[15] = target: Serine/threonine-protein kinase PLK1 (Homo sapiens, UniProt P53350, W414A); test: Binding affinity to GST-tagged PLK1 PBD W414A mutant (unknown origin) by NT-647 dye-based microscale thermophoresis analysis
[16] = target: Serine/threonine-protein kinase PLK1 (Homo sapiens, UniProt P53350); test: Binding affinity to GST-tagged PLK1 PBD (327 to 603 residues) (unknown origin) by NT-647 dye-based microscale thermophoresis analysis
U2OS [17] = test: cells; details: Homo sapiens, 72 h
Description: Growth inhibition of human U2OS cells after 72 hrs by MTT assay

HeLa [18] = test: Induction of mitotic arrest in human HeLa cells assessed as increase in level of 4N DNA cells at 5 uM after 24 hrs by propidium iodide staining-based FACS analysis; type: functional, cell-based
RKO [19] = test: Growth inhibition of human RKO cells at 20 uM after 72 hrs by MTT assay relative to control; type: functional; details: read-out: GI
U2OS [20] = test: Growth inhibition of human U2OS cells at 20 uM after 72 hrs by MTT assay relative to control; type: functional; details: read-out: GI
HeLa [21] = test: Induction of mitotic arrest in human HeLa cells by propidium iodide staining-based FACS analysis; type: functional, cell-based

Serine/threonine-protein kinase PLK2, sequence (Q9NYY3 whole entry, the tested form may be a part): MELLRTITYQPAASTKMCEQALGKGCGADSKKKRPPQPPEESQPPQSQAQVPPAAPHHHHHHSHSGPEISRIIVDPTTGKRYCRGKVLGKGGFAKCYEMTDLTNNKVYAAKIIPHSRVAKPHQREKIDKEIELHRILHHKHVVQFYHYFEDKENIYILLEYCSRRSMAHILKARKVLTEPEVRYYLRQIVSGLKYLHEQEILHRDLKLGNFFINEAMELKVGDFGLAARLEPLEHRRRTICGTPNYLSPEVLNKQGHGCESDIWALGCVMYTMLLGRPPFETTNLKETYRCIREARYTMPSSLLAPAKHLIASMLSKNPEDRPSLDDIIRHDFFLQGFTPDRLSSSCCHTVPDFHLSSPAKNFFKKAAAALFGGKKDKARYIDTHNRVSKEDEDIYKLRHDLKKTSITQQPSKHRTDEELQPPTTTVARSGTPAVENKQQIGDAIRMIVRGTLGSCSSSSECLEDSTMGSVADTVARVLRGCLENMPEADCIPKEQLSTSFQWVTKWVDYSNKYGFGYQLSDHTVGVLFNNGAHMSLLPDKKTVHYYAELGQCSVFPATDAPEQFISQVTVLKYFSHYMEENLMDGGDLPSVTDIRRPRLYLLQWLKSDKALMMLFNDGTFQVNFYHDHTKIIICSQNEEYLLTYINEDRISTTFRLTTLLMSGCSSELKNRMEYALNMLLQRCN
Serine/threonine-protein kinase PLK1 (Homo sapiens, UniProt P53350, W414A), sequence (P53350 2-603 W414A limits assumed): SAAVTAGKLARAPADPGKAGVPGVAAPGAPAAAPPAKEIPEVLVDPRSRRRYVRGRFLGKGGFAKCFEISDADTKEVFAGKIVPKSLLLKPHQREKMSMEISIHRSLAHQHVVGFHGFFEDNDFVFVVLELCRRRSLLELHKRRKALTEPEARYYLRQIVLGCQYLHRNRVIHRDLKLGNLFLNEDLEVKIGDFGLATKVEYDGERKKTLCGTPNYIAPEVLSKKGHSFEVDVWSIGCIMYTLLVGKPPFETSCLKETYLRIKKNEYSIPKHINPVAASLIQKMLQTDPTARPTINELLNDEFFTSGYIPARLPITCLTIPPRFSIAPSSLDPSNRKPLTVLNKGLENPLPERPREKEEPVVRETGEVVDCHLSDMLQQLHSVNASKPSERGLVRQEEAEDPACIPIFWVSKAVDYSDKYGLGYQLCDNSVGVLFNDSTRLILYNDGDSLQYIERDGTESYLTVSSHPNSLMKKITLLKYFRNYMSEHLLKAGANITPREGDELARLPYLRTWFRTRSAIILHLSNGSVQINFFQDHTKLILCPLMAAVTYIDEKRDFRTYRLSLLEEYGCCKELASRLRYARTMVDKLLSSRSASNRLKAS
Serine/threonine-protein kinase PLK1 (Homo sapiens, UniProt P53350), sequence (P53350 whole entry, the tested form may be a part): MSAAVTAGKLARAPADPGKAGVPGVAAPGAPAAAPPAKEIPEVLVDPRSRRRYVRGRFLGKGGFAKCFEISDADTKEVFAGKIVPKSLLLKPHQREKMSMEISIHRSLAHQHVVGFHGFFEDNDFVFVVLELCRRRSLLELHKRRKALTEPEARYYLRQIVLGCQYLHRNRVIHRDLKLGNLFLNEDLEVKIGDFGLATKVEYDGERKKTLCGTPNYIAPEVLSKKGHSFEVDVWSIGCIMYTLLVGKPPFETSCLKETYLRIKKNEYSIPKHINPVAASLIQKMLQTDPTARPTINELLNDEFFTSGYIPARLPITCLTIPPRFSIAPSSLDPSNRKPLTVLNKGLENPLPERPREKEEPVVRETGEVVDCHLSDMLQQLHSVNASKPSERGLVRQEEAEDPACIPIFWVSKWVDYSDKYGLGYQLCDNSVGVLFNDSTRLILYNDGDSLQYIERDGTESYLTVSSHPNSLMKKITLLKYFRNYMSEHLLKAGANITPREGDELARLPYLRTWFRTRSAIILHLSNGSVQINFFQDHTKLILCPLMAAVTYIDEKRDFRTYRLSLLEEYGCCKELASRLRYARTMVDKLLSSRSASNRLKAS

SMILES: CC1=CC(=O)C(C(C)C)=C/C1=N/OC(=O)c1ccccc1C
Activity (HeLa [10]): 36% | Kd [7]: 87.3 µM

SMILES: Cc1ccc(/C(=N/S(=O)(=O)c2ccccc2)NC(=S)Nc2ccc([N+](=O)[O-])cc2)cc1
Activity (HeLa [1]): Active | Kd [7]: 159 µM | Activity (HeLa [3]): Dose-dependent effect | EC50 (HeLa [3]): 21.1 µM

SMILES: CCCc1oc2ccc(NS(=O)(=O)c3cccs3)cc2c1C(=O)OCC
inhibition of growth at 50 µM (RKO [11]): 39.4% | EC50 (HeLa [3]): 44.8 µM | Activity (HeLa [14]): Active | inhibition of growth at 50 µM (HeLa [9]): 31.8%

SMILES: CCN(CC)c1ccc(NC(=O)/C=C/c2cccc3ccccc23)cc1
Activity (HeLa [1]): Active | inhibition of growth at 50 µM (RKO [11]): 34% | inhibition of growth at 50 µM (HeLa [9]): 31.2% | EC50 (U2OS [17]): 18.1 µM

SMILES: CC1=C/C(=N/OC(=O)c2ccccc2C)C(C)=CC1=O
EC50 (HeLa [21]): 15 µM

Continued, in another order:

EC50 (HeLa [3]): 18.7 µM
SMILES: Cc1ccc2nc(C)cc(SCC(=O)N/N=C/c3ccc(Cl)cc3)c2c1
Activity (HeLa [1]): Active | inhibition of growth at 100 µM (RKO [2]): 34% | inhibition of growth at 100 µM (U2OS [4]): 25.5% | inhibition of growth at 100 µM (HeLa [5]): 36.7%

EC50 (RKO [6]): 19.2 µM | Kd [7]: 210 µM | EC50 (HeLa [3]): 20.4 µM
SMILES: O=C(CCn1c2ccccc2c2ccccc21)N/N=C/c1cc(Cl)cc(Cl)c1
Activity (HeLa [1]): Active | inhibition of growth at 50 µM (U2OS [8]): 48.8% | inhibition of growth at 50 µM (HeLa [9]): 45.7%

EC50 (HeLa [3]): 5.3 µM | EC50 (HeLa [13]): 15 µM
SMILES: CCn1c2ccccc2c2cc(/C=N/NC(=O)c3ccccc3[N+](=O)[O-])ccc21
inhibition of growth at 50 µM (RKO [11]): 43% | inhibition of growth at 50 µM (U2OS [8]): 41.7% | Activity (HeLa [12]): Active

EC50 (HeLa [3]): 8.6 µM
SMILES: CCc1ccc(/C=N/NC(=O)c2sc3cc(Cl)ccc3c2Cl)s1
Activity (HeLa [1]): Active

EC50 (RKO [6]): 10 µM | EC50 (HeLa [3]): 4.4 µM | EC50 (HeLa [13]): 15.6 µM
SMILES: CCn1c2ccccc2c2cc(/C=N/NC(=O)c3cccc(Cl)c3)ccc21
inhibition of growth at 50 µM (U2OS [8]): 42.2% | Activity (HeLa [12]): Active

Kd [15]: 412 µM | Kd [7]: 197 µM | EC50 (HeLa [3]): 25.6 µM | Kd [16]: 44.2 µM | EC50 (U2OS [17]): 37.8 µM
SMILES: Cc1ccccc1OCC(=O)N/N=C/c1ccc2c(c1)OCCO2
Activity (HeLa [1]): Active | inhibition of growth at 100 µM (RKO [2]): 35.3% | inhibition of growth at 100 µM (HeLa [5]): 40.2%

EC50 (HeLa [13]): 2.6 µM
SMILES: O=C(N/N=C/c1ccc(Br)cc1)c1n[nH]c2c1CCCC2
Activity (HeLa [18]): Active | inhibition of growth at 20 µM (RKO [19]): 37% | inhibition of growth at 20 µM (U2OS [20]): 59.8%

Reference: ChEMBL document CHEMBL4428048, “Discovery of Novel Polo-Like Kinase 1 Polo-Box Domain Inhibitors to Induce Mitotic Arrest in Tumor Cells” (J Med Chem, 2016)
